Experimental data reported in PMC7195552 (Journal of Burn Care & Research: Official Publication of …, 2020).
Where two headings read alike, the source gives them in different places.

Legend:
[1] = Plasma pharmacokinetics of daptomycin in patients with severe burn injuries (LC-MS/MS, DAS 2.0); type: in vivo, human; conditions: for half-life: read-out: t(h)½ (converted)
Method: Multiple-dose medication treatment means that daptomycin was administered to burn injury patients as one injection every day of either the standard dose or a high dose. […] During intravenous infusion, vigorous agitation or shaking during drug dissolution was not permitted, thus preventing the formation of gas bubbles. […] The samples were centrifuged and stored at −80°C until required for analysis. PK evaluation was performed by measuring the daptomycin levels in blood samples, using liquid chromatography–mass spectrometry/mass spectrometry (LC-MS/MS) (Waters Micromass Quattro Micro API LC-MS/MS). Chromatographic separation was performed at 35°C using a RP-C18 (Welch Ultimate, 3.0 mm × 150 mm) analytical column. […] PK parameters were calculated using DAS 2.0. […] The maximum plasma concentration (Cmax) and the time at which it occurred (Tmax) were determined directly from the measured plasma concentration–time without interpolation. […] The total body clearance (CL) was obtained from dose/AUC0–∞. The volume of distribution (Vd) was calculated using the equation CL/Ke.

[2] = Hepatorenal function index of patients after daptomycin medication; conditions: 12 mg/kg/d, average ± SD n = 7, patients received supplemental plasma albumin
Method: All statistical analyses were conducted using SAS™ 9.3 software (Cary, NC) and a P value <.05 was considered to be statistically significant.

[3] = Creatine phosphokinase levels and adverse events during daptomycin treatment; type: in vivo, human
Excerpt: The level returned to a normal value without discontinuation of daptomycin treatment. There were no significant CPK differences in the indicated time points between the groups (Table 8).

[4] = patient 1, 12 mg/kg/d iv, multiple dose
[5] = patient 1, 12 mg/kg/d iv, single dose
[6] = patient 2, 12 mg/kg/d iv, multiple dose
[7] = patient 2, 12 mg/kg/d iv, single dose
[8] = patient 3, 12 mg/kg/d iv, multiple dose
[9] = patient 3, 12 mg/kg/d iv, single dose
[10] = patient 4, 12 mg/kg/d iv, multiple dose
[11] = patient 4, 12 mg/kg/d iv, single dose
[12] = patient 5, 12 mg/kg/d iv, multiple dose
[13] = patient 5, 12 mg/kg/d iv, single dose
[14] = patient 6, 12 mg/kg/d iv, multiple dose
[15] = patient 6, 12 mg/kg/d iv, single dose
[16] = patient 7, 12 mg/kg/d iv, multiple dose
[17] = patient 7, 12 mg/kg/d iv, single dose
[18] = patient 8, 6 mg/kg/d iv, multiple dose
[19] = patient 8, 6 mg/kg/d iv, single dose
[20] = patient 9, 6 mg/kg/d iv, multiple dose
[21] = patient 9, 6 mg/kg/d iv, single dose
[22] = patient 10, 6 mg/kg/d iv, multiple dose
[23] = patient 10, 6 mg/kg/d iv, single dose

Work on `CCCCCCCCCC(=O)N[C@@H](Cc1c[nH]c2ccccc12)C(=O)N[C@H](CC(N)=O)C(=O)N[C@@H](CC(=O)O)C(=O)N[C@@H]1C(=O)NCC(=O)N[C@@H](CCCN)C(=O)N[C@@H](CC(=O)O)C(=O)N[C@H](C)C(=O)N[C@@H](CC(=O)O)C(=O)NCC(=O)N[C@H](CO)C(=O)N[C@@H]([C@H](C)CC(=O)O)C(=O)N[C@@H](CC(=O)c2ccccc2N)C(=O)O[C@@H]1C` [daptomycin] yielded a CL ([1]; 6 mg/kg/d iv, multiple dose (day 6), average ± SD n = 3, SD) of 0.0247 ± 0.0118 L/h/kg, a V d ([1]; 12 mg/kg/d iv, multiple dose (day 6), average ± SD n = 7, SD) of 0.24 ± 0.11 L/kg and a Tmax ([1]; human, in vivo, iv, 6 mg/kg) of about 2 h. It also gave a half-life ([1]; human, in vivo, iv, 6 mg/kg/d, 6 mg/kg/d iv, multiple dose (day 6), average ± SD n = 3, SD) of 6.47 ± 1.34 h, a half-life ([1]; human, in vivo, iv, 6 mg/kg/d, 6 mg/kg/d iv, single dose, average ± SD n = 3, SD) of 5.64 ± 1 h and a clearance ([1]; human, in vivo, iv, 12 mg/kg/d, 12 mg/kg/d iv, single dose, average ± SD n = 7, SD, read-out: CL (converted)) of 0.0225 L/h/kg. It also gave a half-life ([1]; human, in vivo, iv, 12 mg/kg/d, 12 mg/kg/d iv, single dose, average ± SD n = 7, SD) of 7.4 ± 2.5 h, a V d ([1]; human, in vivo, iv, V d, SD) of 0.24 ± 0.1 L/kg and a V d ([1]; human, in vivo, iv, SD) of 0.19 ± 0.1 L/kg. It also gave a clearance ([1]; human, in vivo, iv, SD) of 0.0242 L/h/kg, an AUC(0-t) ([1]; human, in vivo, 6 mg/kg/d iv, single dose, average ± SD n = 3, SD, read-out: AUC0–24) of 255 ± 51.6 µg·h/mL and a clearance ([1]; human, in vivo, 12 mg/kg/d iv, multiple dose (day 6), average ± SD n = 7, SD, read-out: CL (converted)) of 0.0198 L/h/kg. The “t(h)½” value ([1]; multiple doses, independent of the dose received (all patients)) was 8.10 ± 1.91 h, the “AUC0–24” value [1, 4] was 588.2 µg·h/mL and the CL [1, 4] was 0.0204 L/h/kg. The V d [1, 4] was 0.26 L/kg, the “t(h)½” value [1, 4] was 8.8 h and the “AUC0–24” value [1, 5] was 486.9 µg·h/mL. For the same molecule, the CL [1, 5] was 0.0219 L/h/kg, the V d [1, 5] was 0.26 L/kg and the “AUC0–24” value [1, 6] was 679.0 µg·h/mL. For the same molecule, the CL [1, 6] was 0.01767 L/h/kg, the V d [1, 6] was 0.22 L/kg and the “t(h)½” value [1, 6] was 8.5 h. The “AUC0–24” value [1, 7] was 511.2 µg·h/mL, the CL [1, 7] was 0.0216 L/h/kg and the V d [1, 7] was 0.21 L/kg. For the same molecule, the “t(h)½” value [1, 7] was 0.5 h, the “AUC0–24” value [1, 8] was 580.7 µg·h/mL and the CL [1, 8] was 0.02066 L/h/kg. The V d [1, 8] was 0.20 L/kg, the “t(h)½” value [1, 8] was 6.7 h and the “AUC0–24” value [1, 9] was 426.7 µg·h/mL. For the same molecule, the CL [1, 9] was 0.0254 L/h/kg, the V d [1, 9] was 0.25 L/kg and the “t(h)½” value [1, 9] was 0.5 h. For the same molecule, the “AUC0–24” value [1, 10] was 709.6 µg·h/mL, the CL [1, 10] was 0.01691 L/h/kg and the V d [1, 10] was 0.16 L/kg. The “t(h)½” value [1, 10] was 6.6 h, the “AUC0–24” value [1, 11] was 477.6 µg·h/mL and the CL [1, 11] was 0.0233 L/h/kg. For the same molecule, the V d [1, 11] was 0.29 L/kg, the “t(h)½” value [1, 11] was 0.5 h and the “AUC0–24” value [1, 12] was 987.6 µg·h/mL. For the same molecule, the CL [1, 12] was 0.01215 L/h/kg, the V d [1, 12] was 0.10 L/kg and the “t(h)½” value [1, 12] was 5.7 h. For the same molecule, the “AUC0–24” value [1, 13] was 809.9 µg·h/mL, the CL [1, 13] was 0.0141 L/h/kg and the V d [1, 13] was 0.10 L/kg. For the same molecule, the “t(h)½” value [1, 13] was 1.5 h, the “AUC0–24” value [1, 14] was 489.1 µg·h/mL and the CL [1, 14] was 0.02453 L/h/kg. For the same molecule, the V d [1, 14] was 0.32 L/kg, the “t(h)½” value [1, 14] was 9.1 h and the “AUC0–24” value [1, 15] was 439.4 µg·h/mL. The CL [1, 15] was 0.0267 L/h/kg, the V d [1, 15] was 0.15 L/kg and the “t(h)½” value [1, 15] was 0.5 h. The “AUC0–24” value [1, 16] was 456.2 µg·h/mL, the CL [1, 16] was 0.0263 L/h/kg and the V d [1, 16] was 0.43 L/kg. The “t(h)½” value [1, 16] was 11.3 h, the “AUC0–24” value [1, 17] was 399.0 µg·h/mL and the CL [1, 17] was 0.0243 L/h/kg. The V d [1, 17] was 0.41 L/kg, the “t(h)½” value [1, 17] was 0.5 h and the “AUC0–24” value [1, 18] was 394.7 µg·h/mL. For the same molecule, the CL [1, 18] was 0.01757 L/h/kg, the V d [1, 18] was 0.15 L/kg and the “t(h)½” value [1, 18] was 6.093 h. The “AUC0–24” value [1, 19] was 273.7 µg·h/mL, the CL [1, 19] was 0.02192 L/h/kg and the V d [1, 19] was 0.14 L/kg. The “t(h)½” value [1, 19] was 4.97 h, the “AUC0–24” value [1, 20] was 249.5 µg·h/mL and the CL [1, 20] was 0.03832 L/h/kg. For the same molecule, the V d [1, 20] was 0.44 L/kg, the “t(h)½” value [1, 20] was 7.958 h and the “AUC0–24” value [1, 21] was 197.0 µg·h/mL. The CL [1, 21] was 0.03045 L/h/kg, the V d [1, 21] was 0.27 L/kg and the “t(h)½” value [1, 21] was 6.737 h. The “AUC0–24” value [1, 22] was 330.3 µg·h/mL, the CL [1, 22] was 0.01816 L/h/kg and the V d [1, 22] was 0.14 L/kg. For the same molecule, the “t(h)½” value [1, 22] was 5.349 h, the “AUC0–24” value [1, 23] was 295.2 µg·h/mL and the CL [1, 23] was 0.02032 L/h/kg. The V d [1, 23] was 0.15 L/kg, the “t(h)½” value [1, 23] was 5.377 h and the “Alb after daptomycin treatment (7 days)” value [2] was 40.5 ± 4.6 g/L. The “serious adverse events or treatment discontinuations” value ([3]; 12 mg/kg/d iv once daily, entire study period) was “no serious adverse events or treatment discontinuations”, the CPK adverse reaction ([3]; patient no. 3, high-dose, day 3, returned to normal without discontinuation) was “transient increase of CPK” and the “serious adverse events and nonserious AEs leading to discontinuation” value ([3]; whole study, 6 or 12 mg/kg/d for 7 to 14 days, 10 patients) was “No serious adverse events”.
